# Laboratory results reported in ChEMBL document CHEMBL1201862, “PubChem BioAssay data set” (2004).
#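 Five concentrations, 48 hours, 96-well plates. The concentration for 50% growth inhibition is given as GI50.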 Active and inactive are the calls of the source. No stated cut-off is given here; in the data, active = GI50 up to about 1.1 µM and inactive = higher.
# Experiments:
# Assay in all cases: growth of human tumour cells (NCI), 48 h
# [1] = system: 786-0
# [2] = system: COLO 205
# [3] = system: HCT-116
# [4] = system: HCT-15
# [5] = system: HOP-62
# [6] = system: IGROV-1
# [7] = system: NCI-H23
# [8] = system: OVCAR-4
# [9] = system: RPMI-8226
# [10] = system: SF-539
# [11] = system: SK-MEL-28
# [12] = system: SK-MEL-2
# [13] = system: SK-MEL-5
# [14] = system: UACC-257
# [15] = system: OVCAR-3
# [16] = system: HCC 2998
Compound,GI50 [1],GI50 [2],GI50 [3],GI50 [4],GI50 [5],GI50 [6],GI50 [7],GI50 [8],GI50 [9],GI50 [10],GI50 [11],GI50 [12],GI50 [13],GI50 [14],GI50 [15],GI50 [16]
Oc1cc(-c2ccccc2)c2ccccc2n1,> 100 µM (inactive),> 100 µM (inactive),64.7 µM (inactive),58.9 µM,28.2 µM (inactive),23.9 µM (inactive),84.7 µM (inactive),73.6 µM (inactive),67.6 µM (inactive),52.7 µM (inactive),37.3 µM (inactive),72.1 µM (inactive),16.6 µM (inactive),61 µM (inactive),,
[N-]=[N+]=Nc1ccc(CCN2CCN(c3cccc(C(F)(F)F)c3)CC2)cc1I,> 100 µM (inactive),> 100 µM (inactive),71.1 µM (inactive),25.2 µM,,,46.6 µM (inactive),> 100 µM (inactive),13 µM (inactive),> 100 µM (inactive),> 100 µM (inactive),38.4 µM (inactive),65.8 µM (inactive),96.8 µM (inactive),78.9 µM (inactive),
CCOC(=O)NN(C(=O)OCC)C(C(=O)c1ccc(Cl)cc1)=C1NCCN1,> 100 µM (inactive),> 100 µM (inactive),> 100 µM (inactive),,> 100 µM (inactive),> 100 µM (inactive),> 100 µM (inactive),> 100 µM (inactive),,> 100 µM (inactive),> 100 µM (inactive),> 100 µM (inactive),> 100 µM (inactive),> 100 µM (inactive),> 100 µM (inactive),> 100 µM (inactive)
Cc1ccc(C)c2sc3cc(=O)ccc-3nc12,39.2 µM (inactive),63.8 µM (inactive),54.3 µM (inactive),29.4 µM,28.7 µM (inactive),82 µM (inactive),29 µM (inactive),21.1 µM (inactive),,32.2 µM (inactive),43.4 µM (inactive),53.3 µM (inactive),16.5 µM (inactive),35.1 µM (inactive),43.3 µM (inactive),44.1 µM (inactive)
CC(=O)O[C@H]1CC[C@@]2(C)C(=C/C(=N\[N+](=O)[O-])[C@H]3C4CCC([C@H](C)CCCC(C)C)[C@@]4(C)CCC32)C1 (stereo partly specified),> 100 µM (inactive),> 100 µM (inactive),> 100 µM (inactive),> 100 µM,> 100 µM (inactive),> 100 µM (inactive),> 100 µM (inactive),> 100 µM (inactive),> 100 µM (inactive),> 100 µM (inactive),> 100 µM (inactive),> 100 µM (inactive),> 100 µM (inactive),> 100 µM (inactive),> 100 µM (inactive),
CCOC(=O)NC(=O)c1cn(-c2ccc(CCOC(=O)NCCCCCCNC(=O)OCCc3ccc(-n4c(=O)[nH]cc(C(=O)NC(=O)OCC)c4=O)cc3)cc2)c(=O)[nH]c1=O,48.5 µM (inactive),> 100 µM (inactive),> 100 µM (inactive),> 100 µM,37.6 µM (inactive),75.2 µM (inactive),49.4 µM (inactive),> 100 µM (inactive),> 100 µM (inactive),23.7 µM (inactive),> 100 µM (inactive),> 100 µM (inactive),78.7 µM (inactive),> 72.8 µM (inactive),> 100 µM (inactive),> 100 µM (inactive)
Cn1nc(-c2ccccc2)c(C(=O)/C=C/c2ccccc2)c(N2CCCCC2)c1=O,12.5 µM (inactive),9.98 µM (inactive),4.91 µM (inactive),17.7 µM,3.91 µM (inactive),> 100 µM (inactive),14 µM (inactive),,4.22 µM (inactive),41.5 µM (inactive),14.5 µM (inactive),,17.5 µM (inactive),,,
CCCCc1c2c(nc3c1CCC/C3=C\c1ccccc1)/C(=C/c1ccccc1)CCC2,> 100 µM (inactive),> 100 µM (inactive),> 100 µM (inactive),> 100 µM,> 100 µM (inactive),> 100 µM (inactive),> 100 µM (inactive),,> 100 µM (inactive),> 100 µM (inactive),> 100 µM (inactive),,> 100 µM (inactive),> 100 µM (inactive),> 100 µM (inactive),> 100 µM (inactive)
N#CC(NNC(=O)Cc1ccccc1)c1ccc(O)cc1 (stereo unspecified),> 100 µM (inactive),> 100 µM (inactive),> 100 µM (inactive),> 100 µM,> 100 µM (inactive),> 100 µM (inactive),> 100 µM (inactive),> 100 µM (inactive),> 100 µM (inactive),> 100 µM (inactive),> 100 µM (inactive),> 100 µM (inactive),> 100 µM (inactive),> 100 µM (inactive),,
O=C(NC1C=Nc2ccccc2NC1=O)c1ccccc1Cl (stereo unspecified),56 µM (inactive),22.7 µM (inactive),39.1 µM (inactive),33.7 µM,> 100 µM (inactive),36.8 µM (inactive),43.9 µM (inactive),33.3 µM (inactive),,> 100 µM (inactive),> 100 µM (inactive),36.9 µM (inactive),45.8 µM (inactive),38.5 µM (inactive),28.4 µM (inactive),56.4 µM (inactive)
O=C(CC(=O)Nc1ccc(Cl)cc1)NNCC(=O)Nc1nc(-c2ccccc2)cs1,> 100 µM (inactive),> 100 µM (inactive),> 100 µM (inactive),,> 100 µM (inactive),> 100 µM (inactive),> 100 µM (inactive),> 100 µM (inactive),> 100 µM (inactive),> 100 µM (inactive),> 100 µM (inactive),,> 100 µM (inactive),,> 100 µM (inactive),> 100 µM (inactive)
C[Si](C)(C)C(CCCCSc1ccccc1)(Sc1ccccc1)Sc1ccccc1,> 100 µM (inactive),> 100 µM (inactive),> 100 µM (inactive),> 100 µM,,,68.1 µM (inactive),> 100 µM (inactive),> 100 µM (inactive),> 100 µM (inactive),> 100 µM (inactive),> 100 µM (inactive),> 100 µM (inactive),> 100 µM (inactive),,> 100 µM (inactive)
Oc1cc(C2OCCCO2)cc(O)c1O,> 100 µM (inactive),> 100 µM (inactive),> 100 µM (inactive),> 100 µM,> 100 µM (inactive),> 100 µM (inactive),> 100 µM (inactive),> 100 µM (inactive),> 100 µM (inactive),> 100 µM (inactive),> 100 µM (inactive),> 100 µM (inactive),> 100 µM (inactive),> 100 µM (inactive),> 100 µM (inactive),> 100 µM (inactive)
CC(=O)NC(CC(C)C)C(=O)NC(Cc1ccccc1)C(=S)N1CCCC1 (stereo unspecified),> 100 µM (inactive),> 100 µM (inactive),,> 100 µM,> 100 µM (inactive),> 100 µM (inactive),> 100 µM (inactive),> 100 µM (inactive),> 100 µM (inactive),,> 100 µM (inactive),> 100 µM (inactive),> 100 µM (inactive),> 100 µM (inactive),> 100 µM (inactive),> 100 µM (inactive)
COC(=O)C1CCc2c1c(=O)n1c([nH]c3ccccc31)c2C#N (stereo unspecified),> 100 µM (inactive),> 100 µM (inactive),> 100 µM (inactive),> 100 µM,> 100 µM (inactive),> 100 µM (inactive),> 100 µM (inactive),> 100 µM (inactive),> 100 µM (inactive),> 100 µM (inactive),> 100 µM (inactive),> 100 µM (inactive),> 100 µM (inactive),> 100 µM (inactive),> 100 µM (inactive),> 100 µM (inactive)
CC(C)(C)c1ccc(OC2CCO2)cc1 (stereo unspecified),28.7 µM (inactive),29.4 µM (inactive),21 µM (inactive),20 µM,> 100 µM (inactive),> 100 µM (inactive),55.5 µM (inactive),34.2 µM (inactive),22.1 µM (inactive),37.6 µM (inactive),98.6 µM (inactive),,36.3 µM (inactive),31.6 µM (inactive),34.5 µM (inactive),27.5 µM (inactive)
COC(=O)C1C=CCC2CCCCC21N1CCCC1 (stereo unspecified),> 100 µM (inactive),40.9 µM (inactive),46.1 µM (inactive),> 100 µM,> 100 µM (inactive),> 100 µM (inactive),,> 100 µM (inactive),42.7 µM (inactive),> 100 µM (inactive),98.9 µM (inactive),,84.3 µM (inactive),> 100 µM (inactive),49.4 µM (inactive),69.2 µM (inactive)
COc1cc(/C=C\c2ccccn2)cc(OC)c1OC,> 100 µM (inactive),66.1 µM (inactive),> 100 µM (inactive),78.3 µM,79.4 µM (inactive),> 100 µM (inactive),> 100 µM (inactive),> 100 µM (inactive),30.6 µM (inactive),> 100 µM (inactive),> 100 µM (inactive),,57.5 µM (inactive),> 100 µM (inactive),> 100 µM (inactive),
COC(=O)/C(C)=C(/CCC1(C)OCCO1)O[Si](C)(C)C,> 100 µM (inactive),> 100 µM (inactive),> 100 µM (inactive),> 100 µM,> 100 µM (inactive),> 100 µM (inactive),> 100 µM (inactive),> 100 µM (inactive),> 100 µM (inactive),> 100 µM (inactive),,> 100 µM (inactive),> 100 µM (inactive),> 100 µM (inactive),> 100 µM (inactive),> 100 µM (inactive)
